Data from the NIST ThermoML archive (doi:10.1021/je020178w).

Columns and labels:
[1] = 308.15 K, 101.3 kPa, Liquid; for viscosity: Capillary tube (Ostwald / Ubbelohde) method
[2] = xn = mol fraction of the nth substance listed; settings: 308.15 K, 101.3 kPa, Liquid; for viscosity: Capillary tube (Ostwald / Ubbelohde) method

OCCO [1,2-ethanediol]
Settings	viscosity [mPa·s]
[1]	10.59

CNC(C)=O [N-methylacetamide]
[1]
Settings	mass density [kg/m3]	viscosity [mPa·s]
–	958.9	3.67

CNC(C)=O [N-methylacetamide] + OCCO
[2]
Settings	mass density [kg/m3]
x1 = 0.0847	1089.5
x1 = 0.212	1068.3
x1 = 0.3298	1049.4
x1 = 0.4247	1034.9
x1 = 0.5255	1020.5
x1 = 0.6275	1006.3
x1 = 0.7471	990.5
x1 = 0.8412	978.6
x1 = 0.9347	967.3
x1 = 1	958.9

CNC(C)=O [N-methylacetamide] + OCCOCCO
[2]
Settings	mass density [kg/m3]	viscosity [mPa·s]
x1 = 0.1121	1094.4	16.13
x1 = 0.2394	1079.9	14.47
x1 = 0.3419	1067.4	13.11
x1 = 0.4564	1052.2	11.57
x1 = 0.5574	1037.8	10.17
x1 = 0.6538	1023.2	8.8
x1 = 0.7649	1005.3	7.2
x1 = 0.8343	993	6.16
x1 = 0.9252	975.2	4.8
x1 = 1	958.9	3.67

CNC(C)=O [N-methylacetamide] + OCCOCCOCCO
[2]
Settings	mass density [kg/m3]	viscosity [mPa·s]
x1 = 0.1142	1103.7	21.93
x1 = 0.2059	1095.7	20.39
x1 = 0.3069	1085.6	18.59
x1 = 0.4265	1071.8	16.35
x1 = 0.5415	1056.3	14.01
x1 = 0.6392	1041	11.91
x1 = 0.7266	1025.3	9.98
x1 = 0.8278	1004.5	7.74
x1 = 0.9307	979.5	5.3
x1 = 1	958.9	3.67

OCCOCCO [diethylene glycol]
[1]
Settings	mass density [kg/m3]	viscosity [mPa·s]
–	1105.6	17.59

OCCOCCO [diethylene glycol] + CNC(C)=O
[2], x2 = 0
Settings	mass density [kg/m3]	viscosity [mPa·s]
–	1105.6	17.59

OCCOCCOCCO [triethylene glycol]
[1]
Settings	mass density [kg/m3]	viscosity [mPa·s]
–	1112.1	23.84

OCCOCCOCCO [triethylene glycol] + CNC(C)=O
[2], x2 = 0
Settings	mass density [kg/m3]	viscosity [mPa·s]
–	1112.1	23.84
